Among the data in patent publication US20160122342A1, “ENHANCER OF ZESTE HOMOLOG 2 INHIBITORS” (GLAXOSMITHKLINE INTELLECTUAL PROPERTY (NO.2) LIMITED, priority 2013, published 2016) are IC50 values, retold here.

Assay [1] addresses T1, EZH2 within the PRC2 complex (Homo sapiens, UniProt Q15910).
T1 construct: FLAG; made in house; host or cells: Sf9 cells
The experiment in a line: Assay Protocol 2: EZH2 methyltransferase scintillation proximity assay, biotinylated histone H3 peptide substrate. It counts as biochemical. The note with it: SPA, 3H-SAM, biotinylated unmethylated histone H3K27 peptide substrate, 5-member PRC2 complex. The essentials: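 PRC2-complexed EZH2 was run in 50 mM Tris-HCl pH 8, 2 mM MgCl2, 4 mM DTT and 0.001% Tween-20. It was added to a 2× mix of 10 uM biotinylated H3K27 peptide, 0.15 uM 3H-SAM and 2.85 uM cold SAM with streptavidin SPA beads. After 60 min at room temperature and a cold-SAM quench, IC50 was fitted from percent inhibition versus DMSO.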
In general terms: In a scintillation proximity assay essentially only radioactivity close to the scintillant gives light.

The target of assay [2] is T1, EZH2 within the PRC2 complex. The experiment in a line: Assay Protocol 1: EZH2 methyltransferase scintillation proximity assay, mononucleosome substrate. It counts as biochemical. The note with it: Assay Protocol 1; SPA, 3H-SAM, Histone H3 of mononucleosome purified from HeLa cells; 5-member PRC2 complex; read-out: EZH2 IC50. The protocol: Compounds contained herein were evaluated for their ability to inhibit the methyltransferase activity of EZH2 within the PRC2 complex. […] Mononucleosomes were captured on SPA beads and the resulting signal is read on a ViewLux plate reader. • 1. Prepare 10 mM stock of compounds from solid in 100% DMSO. • 2. […] Dispense 100 nL of compound from the dilution plate into reaction plates (Grenier Bio-One, 384-well, Cat#784075). Prepare the following solutions: • 1. 50 mM Tris-HCl, pH 8: Per 1 L of base buffer, combine 1 M Tris-HCl, pH 8 (50 mL) and distilled water (950 mL). • 2. 1× Assay Buffer: […] SPA Bead Suspension: […] Per 10 mL of 2× Substrate Solution, combine 1× Assay Buffer (9728.55 uL), 800 ug/mL mononucleosomes (125 uL), 1 mM cold SAM (4 uL), and 7.02 uM 3H-SAM (142.45 uL; 0.55 mCi/mL) to provide a final concentration of 5 ug/mL nucleosomes, 0.2 uM cold SAM, and 0.05 uM 3H-SAM. • 6. 2.67× Quench/Bead Mixture: Per 10 mL of 2.67× Quench/Bead Mixture, combine ddH2O (9358 uL), 10 mM cold SAM (267 uL), 40 mg/mL Bead Suspension (375 uL) to provide a final concentration of 100 uM cold SAM and 0.5 mg/mL SPA beads. • 1. Dispense 100 nL/well of 100× Compound to test wells (as noted above). • 2. […] • 1. Dispense 5 uL/well of 1× Assay Buffer to column 18 (low control reactions). • 2. Dispense 5 uL/well of 2× Enzyme Solution to columns 1-17, 19-24. • 3. Spin assay plates for ˜1 minute at 500 rpm. • 4. Stack the assay plates, covering the top plate. • 5. Incubate the compound/DMSO with the enzyme for 30 minutes at room temperature. • 6. Dispense 5 uL/well of 2× Substrate Solution to columns 1-24. • 7. Spin assay plates for ˜1 minute at 500 rpm. • 8. Stack the assay plates, covering the top plate. • 9. Incubate the assay plates at room temperature for 1 hour. • 1. Dispense 5 uL/well of the 3× Quench/Bead Mixture to columns 1-24. • 2. Seal the top of each assay plate with adhesive TopSeal. • 3. Spin assay plates for ˜1 minute at 500 rpm. • 4. […] • 1. Read the assay plates on the Viewlux Plate Reader utilizing the 613 nm emission filter with a 300 s read time. Reagent addition can be done manually or with automated liquid handler. The final DMSO concentration in this assay is 1%. The positive control is in column 6; negative control is in column 18. Final starting concentration of compounds is 100 μM. Percent inhibition was calculated relative to the DMSO control for each compound concentration and the resulting values were fit using standard IC50 fitting parameters within the ABASE data fitting software package.

T1 sequence (Q15910 whole entry): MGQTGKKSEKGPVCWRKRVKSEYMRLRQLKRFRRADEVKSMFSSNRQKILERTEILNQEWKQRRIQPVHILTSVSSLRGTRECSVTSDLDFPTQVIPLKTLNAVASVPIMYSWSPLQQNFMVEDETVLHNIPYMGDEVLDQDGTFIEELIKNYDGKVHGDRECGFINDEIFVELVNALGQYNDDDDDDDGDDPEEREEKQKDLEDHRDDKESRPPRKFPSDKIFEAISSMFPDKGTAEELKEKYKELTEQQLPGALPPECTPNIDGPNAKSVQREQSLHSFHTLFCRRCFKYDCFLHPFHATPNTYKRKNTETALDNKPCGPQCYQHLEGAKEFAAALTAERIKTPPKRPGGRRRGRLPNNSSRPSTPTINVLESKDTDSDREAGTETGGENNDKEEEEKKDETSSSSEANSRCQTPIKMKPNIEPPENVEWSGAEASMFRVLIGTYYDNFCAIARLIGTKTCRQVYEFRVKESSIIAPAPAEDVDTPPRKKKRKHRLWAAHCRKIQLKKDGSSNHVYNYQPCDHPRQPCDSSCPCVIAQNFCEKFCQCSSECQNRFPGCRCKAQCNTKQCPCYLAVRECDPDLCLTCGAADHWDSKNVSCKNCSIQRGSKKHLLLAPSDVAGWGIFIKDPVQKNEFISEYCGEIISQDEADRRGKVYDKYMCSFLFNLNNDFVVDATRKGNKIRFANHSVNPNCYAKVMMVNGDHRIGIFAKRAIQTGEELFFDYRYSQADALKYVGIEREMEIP
T1 sequence (O75530 whole entry partner): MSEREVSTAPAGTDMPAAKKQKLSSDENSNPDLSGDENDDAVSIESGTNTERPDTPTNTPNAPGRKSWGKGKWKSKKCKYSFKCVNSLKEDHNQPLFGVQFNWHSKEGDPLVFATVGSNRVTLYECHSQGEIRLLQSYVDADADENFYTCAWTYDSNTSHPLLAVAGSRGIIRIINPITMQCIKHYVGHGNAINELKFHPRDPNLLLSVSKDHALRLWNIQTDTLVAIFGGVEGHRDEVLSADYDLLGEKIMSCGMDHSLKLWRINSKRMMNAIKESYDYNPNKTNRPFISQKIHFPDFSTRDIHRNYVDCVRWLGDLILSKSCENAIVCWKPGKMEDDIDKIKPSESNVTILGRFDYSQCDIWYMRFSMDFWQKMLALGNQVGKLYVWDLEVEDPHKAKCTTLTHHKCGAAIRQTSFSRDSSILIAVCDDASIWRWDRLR
T1 sequence (Q15022 whole entry partner): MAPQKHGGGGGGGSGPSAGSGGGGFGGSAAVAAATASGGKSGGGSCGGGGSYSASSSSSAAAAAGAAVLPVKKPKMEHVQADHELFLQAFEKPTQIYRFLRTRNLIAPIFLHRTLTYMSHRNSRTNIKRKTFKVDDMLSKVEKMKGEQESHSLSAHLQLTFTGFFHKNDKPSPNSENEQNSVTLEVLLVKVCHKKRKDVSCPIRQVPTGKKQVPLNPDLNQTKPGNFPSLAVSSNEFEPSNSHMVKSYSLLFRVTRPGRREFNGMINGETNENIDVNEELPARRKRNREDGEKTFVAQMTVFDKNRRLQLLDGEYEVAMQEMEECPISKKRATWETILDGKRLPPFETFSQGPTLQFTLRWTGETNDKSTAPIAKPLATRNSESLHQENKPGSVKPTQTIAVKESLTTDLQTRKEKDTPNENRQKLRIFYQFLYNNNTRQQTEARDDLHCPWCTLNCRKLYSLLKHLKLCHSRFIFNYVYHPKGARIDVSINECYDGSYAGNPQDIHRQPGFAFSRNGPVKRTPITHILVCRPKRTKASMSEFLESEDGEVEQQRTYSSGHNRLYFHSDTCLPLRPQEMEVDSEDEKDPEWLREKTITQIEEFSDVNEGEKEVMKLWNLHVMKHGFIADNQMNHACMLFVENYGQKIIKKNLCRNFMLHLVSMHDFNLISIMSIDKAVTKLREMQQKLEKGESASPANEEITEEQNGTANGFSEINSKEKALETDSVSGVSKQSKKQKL
T1 sequence (Q09028 whole entry partner): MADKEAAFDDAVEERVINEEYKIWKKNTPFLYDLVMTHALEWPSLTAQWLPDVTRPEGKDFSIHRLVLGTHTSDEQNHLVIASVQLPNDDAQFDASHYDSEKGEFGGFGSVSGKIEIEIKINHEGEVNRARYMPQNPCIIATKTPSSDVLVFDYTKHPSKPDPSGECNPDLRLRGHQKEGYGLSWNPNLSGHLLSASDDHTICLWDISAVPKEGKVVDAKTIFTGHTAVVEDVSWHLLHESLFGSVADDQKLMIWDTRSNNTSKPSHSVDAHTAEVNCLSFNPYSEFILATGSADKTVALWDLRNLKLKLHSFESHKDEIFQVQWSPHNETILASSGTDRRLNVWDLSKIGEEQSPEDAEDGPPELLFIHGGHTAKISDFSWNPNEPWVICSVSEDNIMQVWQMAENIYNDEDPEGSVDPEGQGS
T1 sequence (Q6ZN18 whole entry partner): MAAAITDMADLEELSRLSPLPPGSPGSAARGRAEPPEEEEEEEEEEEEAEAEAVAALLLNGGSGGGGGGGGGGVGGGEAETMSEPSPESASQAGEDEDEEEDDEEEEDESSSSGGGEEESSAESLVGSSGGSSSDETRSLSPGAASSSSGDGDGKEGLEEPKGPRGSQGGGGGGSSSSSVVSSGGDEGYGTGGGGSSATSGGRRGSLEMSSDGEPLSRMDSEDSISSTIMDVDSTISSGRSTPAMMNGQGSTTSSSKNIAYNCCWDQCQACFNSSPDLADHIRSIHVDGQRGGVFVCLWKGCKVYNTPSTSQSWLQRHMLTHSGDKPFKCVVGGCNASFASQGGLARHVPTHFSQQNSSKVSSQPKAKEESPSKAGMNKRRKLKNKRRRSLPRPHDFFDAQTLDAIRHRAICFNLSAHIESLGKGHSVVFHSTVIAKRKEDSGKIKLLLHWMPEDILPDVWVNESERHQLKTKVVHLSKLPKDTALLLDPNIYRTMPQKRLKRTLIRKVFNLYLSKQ

In general, IC50 refers to the concentration at which inhibition is half-maximal. For the compound `CCN(c1cccc2c1C/C=C/CCCc1cc(C)[nH]c(=O)c1CNC2=O)C1CCOCC1` [Example 19, (E)-11-(ethyl(tetrahydro-2H-pyran-4-yl)amino)-3-methyl-5,6,7,10,16,17-hexahydro-1H-benzo[c]pyrido[4,3-k][1]azacyclotridecine-1,15(2H)-dione], the figures for the IC50 in assay [1] and in assay [2] were 79 nM and 40 nM, respectively.

With `CCN(c1cccc2c1CCCCCCc1cc(C)[nH]c(=O)c1CNC2=O)C1CCOCC1` [Example 20, 11-(ethyl(tetrahydro-2H-pyran-4-yl)amino)-3-methyl-5,6,7,8,9,10,16,17-octahydro-1H-benzo[c]pyrido[4,3-k][1]azacyclotridecine-1,15(2H)-dione], the IC50 in assay [1] is 1000 nM; in assay [2] it was 25 nM.

For `CCN(c1cccc2c1C/C=C\CCCc1cc(C)[nH]c(=O)c1CNC2=O)C1CCOCC1` [Example 21, (Z)-11-(ethyl(tetrahydro-2H-pyran-4-yl)amino)-3-methyl-5,6,7,10,16,17-hexahydro-1H-benzo[c]pyrido[4,3-k][1]azacyclotridecine-1,15(2H)-dione], the figures for the IC50 in assay [1] and in assay [2] were 398 nM and 100 nM, respectively.

Regarding `CCN(c1cccc2c1C/C=C/CCc1cc(C)[nH]c(=O)c1CNC2=O)C1CCC(F)(F)CC1` [Example 30, (E)-10-((4,4-difluorocyclohexyl)(ethyl)amino)-3-methyl-5,6,15,16-tetrahydrobenzo[c]pyrido[4,3-j][1]azacyclododecine-1,14(2H,9H)-dione], the IC50 in assay [1] is 79 nM; in assay [2], 16 nM.

On to `CCN(c1cccc2c1C/C=C/CCc1cc(C)[nH]c(=O)c1CNC2=O)C1CCNCC1` [Example 31, (E)-10-(ethyl(piperidin-4-yl)amino)-3-methyl-5,6,15,16-tetrahydrobenzo[c]pyrido[4,3-j][1]azacyclododecine-1,14(2H,9H)-dione], for which the IC50 was 200 nM in assay [1] and 13 nM in assay [2].

`CCN(c1cccc2c1C/C=C/CCc1cc(C)[nH]c(=O)c1CNC2=O)C1CCN(C(C)C)CC1` [Example 32, (E)-10-(ethyl(1-isopropylpiperidin-4-yl)amino)-3-methyl-5,6,15,16-tetrahydrobenzo[c]pyrido[4,3-j][1]azacyclododecine-1,14(2H,9H)-dione]: the IC50 turned out to be 158 nM in assay [1] and 50 nM in assay [2].

Regarding `CCN(c1cccc2c1C/C=C/CCc1cc(C)[nH]c(=O)c1CNC2=O)C1CCN(C)CC1` [Example 33, (E)-10-(ethyl(1-methylpiperidin-4-yl)amino)-3-methyl-5,6,15,16-tetrahydrobenzo[c]pyrido[4,3-j][1]azacyclododecine-1,14(2H,9H)-dione], the half-inhibitory concentration (IC50) in assay [1] was found to be 200 nM; in assay [2] it was 40 nM.

Take `CCN(c1cccc2c1C/C=C/CCc1cc(C)[nH]c(=O)c1CNC2=O)C1CCN(S(C)(=O)=O)CC1` [Example 34, (E)-10-(ethyl(1-(methylsulfonyl)piperidin-4-yl)amino)-3-methyl-5,6,15,16-tetrahydrobenzo[c]pyrido[4,3-j][1]azacyclododecine-1,14(2H,9H)-dione]: the results for the IC50 in assay [1] and in assay [2] were 126 nM and 63 nM, respectively.

Consider `CCN(c1cccc2c1C/C=C/CCc1cc(C)[nH]c(=O)c1CNC2=O)C1CCN(CCO)CC1` [Example 35, (E)-10-(ethyl(1-(2-hydroxyethyl)piperidin-4-yl)amino)-3-methyl-5,6,15,16-tetrahydrobenzo[c]pyrido[4,3-j][1]azacyclododecine-1,14(2H,9H)-dione], for which the IC50 in assay [1] was found to be 200 nM; in assay [2], 40 nM.

`CCN(c1cccc2c1C/C=C/CCc1cc(C)[nH]c(=O)c1CNC2=O)[C@H]1CC[C@H](N)CC1` [Example 36, (E)-10-((trans-4-aminocyclohexyl)(ethyl)amino)-3-methyl-5,6,15,16-tetrahydrobenzo[c]pyrido[4,3-j][1]azacyclododecine-1,14(2H,9H)-dione]: the IC50 in assay [1] came out at 126 nM; in assay [2], 16 nM.

On to `CCN(c1cccc2c1C/C=C/CCc1cc(C)[nH]c(=O)c1CNC2=O)[C@H]1CC[C@H](N(C)C)CC1` [Example 37, (E)-10-((trans-4-(dimethylamino)cyclohexyl)(ethyl)amino)-3-methyl-5,6,15,16-tetrahydrobenzo[c]pyrido[4,3-j][1]azacyclododecine-1,14(2H,9H)-dione], for which the IC50 in assay [1] stood at 126 nM; in assay [2], 50 nM.

As to `CCN(c1cccc2c1C/C=C/CNCc1cc(C)[nH]c(=O)c1CNC2=O)C1CCOCC1` [Example 38, (E)-11-(ethyl(tetrahydro-2H-pyran-4-yl)amino)-3-methyl-5,6,7,10,16,17-hexahydro-1H-benzo[h]pyrido[4,3-c][1,6]diazacyclotridecine-1,15(2H)-dione], the IC50 in assay [1] worked out at 158 nM; in assay [2] it was 100 nM.

With `CCN(c1cccc2c1C/C=C\CNCc1cc(C)[nH]c(=O)c1CNC2=O)C1CCOCC1` [Example 39, (Z)-11-(ethyl(tetrahydro-2H-pyran-4-yl)amino)-3-methyl-5,6,7,10,16,17-hexahydro-1H-benzo[h]pyrido[4,3-c][1,6]diazacyclotridecine-1,15(2H)-dione], the IC50 was 2000 nM in assay [1] and 1260 nM in assay [2].

As for `CCN(c1cccc2c1C/C=C/CCCc1cc(C)[nH]c(=O)c1CNC2=O)C1CCNCC1` [Example 40, (E)-11-(ethyl(piperidin-4-yl)amino)-3-methyl-5,6,7,10,16,17-hexahydro-1H-benzo[c]pyrido[4,3-k][1]azacyclotridecine-1,15(2H)-dione], the IC50 in assay [1] turned out to be 100 nM; in assay [2] it was 32 nM.

Regarding `CCN(c1cccc2c1C/C=C/CCc1cc(C)[nH]c(=O)c1CNC2=O)C1CCN(CC2CC2)CC1` [Example 41, (E)-10-((1-(cyclopropylmethyl)piperidin-4-yl)(ethyl)amino)-3-methyl-5,6,15,16-tetrahydrobenzo[c]pyrido[4,3-j][1]azacyclododecine-1,14(2H,9H)-dione], the IC50 in assay [1] and in assay [2] was 40 nM throughout.

Consider `CCN(c1cccc2c1C/C=C/CCc1cc(C)[nH]c(=O)c1CNC2=O)C1CCN(CCC(F)(F)F)CC1` [Example 43, (E)-10-(ethyl(1-(3,3,3-trifluoropropyl)piperidin-4-yl)amino)-3-methyl-5,6,15,16-tetrahydrobenzo[c]pyrido[4,3-j][1]azacyclododecine-1,14(2H,9H)-dione], for which the figures for the IC50 in assay [1] and in assay [2] were 200 nM and 63 nM, respectively.

`CCN(c1cccc2c1C/C=C/CCc1cc(C)[nH]c(=O)c1CNC2=O)C1CCN(C(CO)CO)CC1` [Example 51, (E)-10-((1-(1,3-dihydroxypropan-2-yl)piperidin-4-yl)(ethyl)amino)-3-methyl-5,6,15,16-tetrahydrobenzo[c]pyrido[4,3-j][1]azacyclododecine-1,14(2H,9H)-dione]: the IC50 in assay [1] came to 398 nM; in assay [2] it was 200 nM.

Take `CCN(c1cccc2c1C/C=C\CCc1cc(C)[nH]c(=O)c1CNC2=O)C1CCNCC1` [Example 52, (Z)-10-(ethyl(piperidin-4-yl)amino)-3-methyl-5,6,15,16-tetrahydrobenzo[c]pyrido[4,3-j][1]azacyclododecine-1,14(2H,9H)-dione]: the 50% inhibitory concentration (IC50) in assay [1] was determined as 2000 nM; in assay [2], 631 nM.
